Assays:
FGFR2 [1] = target: T1, FGFR2 (Homo sapiens (Human), UniProt P21802); assay: FGFR2 Biochemical Caliper Assay
Method: Compounds of the present invention were also tested in a FGFR2 Biochemical Caliper Assay. Compounds were prepared in 10 mM DMSO solution and serially diluted into 11 concentrations by 3-fold dilution. […] 5 uL of ATP solution (100 uM) was added to start the reaction and the plate was incubated for 90 minutes, then 70 uL of stopping buffer (0.5M EDTA) was added to terminate the reaction. Each well was analyzed using EZ reader.

SNU16 cells = assay: SNU16 Cancer Cell Line Proliferation Assay; type: cell-based; conditions: SNU-16 cells
Method: Compounds of the present invention were also tested in a SNU16 Cancer Cell Line Proliferation Assay, Test compounds were prepared in a 10 mM DMSO stock solution. 45 uL of stock solution was transferred to a 384 well plate, and a 3-fold 11-point dolution was performed. SNU16 cells in a 384 well cell culture plate were seeded and incubated at 37 degrees for 24 hours. 40 nL of each concentration of compound was transferred from the compound plate to a corresponding well in the cell culture plate by Echo550 liquid handler. The plates were incubated for 96 hours, then equilibrated to room temperature for 15 minutes. 20 uL of CellTiter Glo reagent is added into each well, then the plate was shaken gently for 30 minutes at room temperature. Chemiluminescence was then read on an EnVision reader.

FGFR2 [2] = target: T1, FGFR2; assay: Biochemical FGFR2 Caliper assay
SNU-16 = assay: Cell SNU-16 assay; type: cell-based; conditions: Homo sapiens, SNU-16, SNU-16 cells

T1 sequence (P21802 22-821): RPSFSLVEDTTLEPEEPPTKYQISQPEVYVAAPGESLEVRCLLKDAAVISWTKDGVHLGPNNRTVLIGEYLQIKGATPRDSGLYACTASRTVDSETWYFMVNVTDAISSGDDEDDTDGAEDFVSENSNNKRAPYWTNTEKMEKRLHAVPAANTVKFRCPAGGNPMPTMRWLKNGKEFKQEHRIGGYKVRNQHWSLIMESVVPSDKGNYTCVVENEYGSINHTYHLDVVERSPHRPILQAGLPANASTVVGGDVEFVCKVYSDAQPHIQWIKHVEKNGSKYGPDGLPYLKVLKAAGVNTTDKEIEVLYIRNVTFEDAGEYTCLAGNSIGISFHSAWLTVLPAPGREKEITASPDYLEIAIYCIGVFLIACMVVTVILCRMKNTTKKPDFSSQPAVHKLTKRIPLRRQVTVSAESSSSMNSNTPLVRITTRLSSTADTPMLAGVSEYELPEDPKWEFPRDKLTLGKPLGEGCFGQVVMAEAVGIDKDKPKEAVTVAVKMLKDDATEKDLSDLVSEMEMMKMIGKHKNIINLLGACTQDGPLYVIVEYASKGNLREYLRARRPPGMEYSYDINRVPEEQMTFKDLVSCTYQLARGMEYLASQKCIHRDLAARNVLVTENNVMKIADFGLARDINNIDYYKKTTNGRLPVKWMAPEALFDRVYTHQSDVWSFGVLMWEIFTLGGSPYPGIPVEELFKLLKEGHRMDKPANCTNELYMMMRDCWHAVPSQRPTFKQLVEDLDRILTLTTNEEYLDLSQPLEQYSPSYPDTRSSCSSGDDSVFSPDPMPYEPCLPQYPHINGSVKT

| SMILES | IC50 (FGFR2 [1]) [nM] | IC50 (SNU16 cells; Homo sapiens) [nM] | IC50 (SNU16 cells) [nM] | IC50 (FGFR2 [2]) [nM] | IC50 (SNU-16) [nM] |
| --- | --- | --- | --- | --- | --- |
| C=C(C)C(=O)Nc1ccc(-c2c(C3=CC[C@@H](C(=O)N4CCCC4)CC3)c3c(N)ncnc3n2C)cc1 (single isomer, unassigned) [Example 397] | 1000 to 100000 | 250 to 1000 |  |  |  |
| C=C(C)C(=O)Nc1ccc(-c2c(C3=CC[C@H](C(=O)N4CCCC4)CC3)c3c(N)ncnc3n2C)cc1 (single isomer, unassigned) [Example 398] | < 100 | ≤ 100 |  |  |  |
| C=C(C)C(=O)Nc1ccc(-c2c(C3=CC[C@@H](Oc4cccc(C)n4)CC3)c3c(N)ncnc3n2C)cc1 (single isomer, unassigned) [Example 451] | 250 to 1000 | ≤ 100 |  |  |  |
| C=C(C)C(=O)Nc1ccc(-c2c(C3=CC[C@H](Oc4cccc(C)n4)CC3)c3c(N)ncnc3n2C)cc1 (single isomer, unassigned) [Example 452] | 1000 to 100000 | 250 to 1000 |  |  |  |
| C=C(C)C(=O)Nc1ccc(-c2c(-c3ccc(C(=O)N4CC[C@@H]5C[C@@H]54)cc3)c3c(N)ncnc3n2C)c(F)c1 (single isomer, unassigned) [Example 464] | < 100 | ≤ 100 |  |  |  |
| C=C(C)C(=O)Nc1ccc(-c2c(-c3ccc(C(=O)N4CC[C@H]5C[C@H]54)cc3)c3c(N)ncnc3n2C)c(F)c1 (single isomer, unassigned) [Example 466] | < 100 | ≤ 100 |  |  |  |
| C=C(C)C(=O)Nc1ccc(-c2c(-c3ccc(Oc4nccc(C)n4)c(F)c3)c3c(N)ncnc3n2[C@H]2CCOC2)cc1 (single isomer, unassigned) [Example 538] | < 100 | ≤ 100 |  |  |  |
| C=C(C)C(=O)Nc1ccc(-c2c(-c3ccc(Oc4nccc(C)n4)c(F)c3)c3c(N)ncnc3n2[C@@H]2CCOC2)cc1 (single isomer, unassigned) [Example 539] | < 100 | ≤ 100 |  |  |  |
| C=C(C)C(=O)Nc1ccc(-c2c(C3=CC[C@H](Oc4ccn(C)n4)CC3)c3c(N)ncnc3n2C)cc1 (single isomer, unassigned) [Example 550] | 100 to 250 | ≤ 100 |  |  |  |
| C[C@@H](Cl)C(=O)Nc1ccc(-c2c(-c3ccc(C(=O)N4CCCC4)cc3)c3c(N)ncnc3n2C)cc1 (single isomer, unassigned) [Example 559] | 250 to 1000 | 250 to 1000 |  |  |  |
| C[C@H](Cl)C(=O)Nc1ccc(-c2c(-c3ccc(C(=O)N4CCCC4)cc3)c3c(N)ncnc3n2C)cc1 (single isomer, unassigned) [Example 560] | 100 to 250 | 100 to 250 |  |  |  |
| Cn1c(-c2ccc(NC(=O)C3=CCC3)cc2)c(C2=CC[C@@H](C(=O)N3CCCC3)CC2)c2c(N)ncnc21 (single isomer, unassigned) [Example 565] | < 100 | ≤ 100 |  |  |  |
| C=C(C)C(=O)Nc1ccc(-c2c(C3=CC[C@@H](C(=O)N4CCC[C@H]4C#N)CC3)c3c(N)ncnc3n2C)cc1 (single isomer, unassigned) [Example 582] | < 100 | ≤ 100 |  |  |  |
| Cn1c(-c2ccc(NC(=O)[C@@H]3CO3)cc2)c(-c2ccc(C(=O)N3CCCC3)cc2)c2c(N)ncnc21 (single isomer, unassigned) [Example 584] | 100 to 250 | 250 to 1000 |  |  |  |
| C=C(C)C(=O)Nc1ccc(-c2c(C3=CC[C@@H](C(=O)N4CC5CC5C4)CC3)c3c(N)ncnc3n2C)cc1 (single isomer, unassigned) [Example 592] | < 100 | ≤ 100 |  |  |  |
| C=CC(=O)N1CC[C@@H](c2c(-c3ccc(Oc4ncccn4)cc3)c3c(N)ncnc3n2C)C1 (single isomer, unassigned) [Example 697] | < 100 | ≤ 100 |  |  |  |
| C=CC(=O)N1CC[C@H](c2c(-c3ccc(Oc4ncccn4)cc3)c3c(N)ncnc3n2C)C1 (single isomer, unassigned) [Example 698] | 250 to 1000 | 100 to 250 |  |  |  |
| C=CC(=O)N1CC[C@@H](c2c(-c3ccc(Oc4ncccn4)cc3)c3c(N)ncnc3n2CC)C1 (single isomer, unassigned) [Example 708] | < 100 | ≤ 100 |  |  |  |
| C=CC(=O)N1CC[C@H](c2c(-c3ccc(Oc4ncccn4)cc3)c3c(N)ncnc3n2CC)C1 (single isomer, unassigned) [Example 710] | 250 to 1000 | 100 to 250 |  |  |  |

| SMILES | IC50 (FGFR2 [1]) [nM] | IC50 (SNU16 cells; Homo sapiens) [nM] | IC50 (SNU16 cells) [nM] | IC50 (FGFR2 [2]) [nM] | IC50 (SNU-16) [nM] |
| --- | --- | --- | --- | --- | --- |
| C=CC(=O)N1CC[C@@H](c2c(-c3ccc(Oc4cccc(C)n4)cc3)c3c(N)ncnc3n2C)C1 (single isomer, unassigned) [Example 711] | < 100 | ≤ 100 |  |  |  |
| C=CC(=O)N1CC[C@H](c2c(-c3ccc(Oc4cccc(C)n4)cc3)c3c(N)ncnc3n2C)C1 (single isomer, unassigned) [Example 712] | < 100 | ≤ 100 |  |  |  |
| C=CC(=O)N1CC[C@@H](c2[nH]c3ncnc(N)c3c2-c2ccc(Oc3cccc(C)n3)cc2)C1 (single isomer, unassigned) [Example 752] | < 100 | ≤ 100 |  |  |  |
| C=CC(=O)N1CC[C@H](c2[nH]c3ncnc(N)c3c2-c2ccc(Oc3cccc(C)n3)cc2)C1 (single isomer, unassigned) [Example 754] | 250 to 1000 | 100 to 250 |  |  |  |
| C=CC(=O)Nc1ccc(-c2c(-c3ccc(Oc4cccc(C)n4)c(OC)c3)c3c(N)ncnc3n2C)cc1 [Example 1] | < 100 | ≤ 100 |  |  |  |
| CC#CC(=O)Nc1ccc(-c2c(-c3ccc(Oc4cccc(C)n4)c(OC)c3)c3c(N)ncnc3n2C)cc1 [Example 18] |  | ≤ 100 |  |  |  |
| C=C(C)C(=O)Nc1ccc(-c2c(-c3ccc(Oc4nccc(C)n4)c(F)c3)c3c(N)ncnc3n2C)cc1 [Example 343] |  | ≤ 100 |  |  |  |
| C=C(C)C(=O)Nc1ccc(-c2c(-c3ccc(Oc4nccc(C)n4)c(F)c3)c3c(N)ncnc3n2C)c(C)c1 [Example 495] |  |  | ≤ 100 |  |  |
| C=C(C)C(=O)Nc1ccc(-c2c(-c3ccc(Oc4nccc(C)n4)c(F)c3)c3c(N)ncnc3n2C)c(C(F)F)c1 [Example 496] |  |  | ≤ 100 |  |  |
| C=C(C)C(=O)Nc1ccc(-c2c(-c3ccc(Oc4nccc(C)n4)c(F)c3)c3c(N)ncnc3n2C)c(C(F)F)c1 [Example 527] |  |  | ≤ 100 |  |  |
| C=C(C)C(=O)Nc1ccc(-c2c(-c3ccc(Oc4nccc(C)n4)c(F)c3)c3c(N)ncnc3n2C)c(C)c1 [Example 531] |  |  | ≤ 100 |  |  |
| C=C(C)C(=O)Nc1ccc(-c2c(-c3ccc(Oc4nccc(C)n4)c(F)c3)c3c(N)ncnc3n2C)c(CO)c1 [Example 535] |  |  | ≤ 100 |  |  |
| C=CC(=O)N1CCC(c2c(-c3ccc(N4CCN(C(C)C)CC4)cc3)c3c(N)ncnc3n2C)C1 (centres unmarked) [Example 770] |  | 1000 to 100000 |  |  |  |
| C=C(C)C(=O)Nc1cc(C)c(-c2c(C3=CC[C@@H](C(=O)N4CCCC4)CC3)c3c(N)ncnc3n2C)c(F)c1 [Example 1483] |  |  |  | < 100 | ≤ 100 |
| C#Cc1ncc(-c2c(-c3ccc(Oc4nccc(C)n4)cn3)c3c(C)ncnc3n2C)c(C)c1F [Example 1488] |  |  |  | 250 to 1000 | 250 to 1000 |
| C#Cc1ncc(-c2c(-c3ccc(Oc4nccc(C)n4)cn3)c3c(N)ncnc3n2C)c(OC)c1F [Example 1490] |  |  |  | 1000 to 100000 | 1000 to 100000 |
| C#Cc1cc(OC)c(-c2c(-c3ccc(Oc4nccc(C)n4)cn3)c3c(N)ncnc3n2C)cn1 [Example 1491] |  |  |  | < 100 | ≤ 100 |
| C#Cc1cc(C)c(-c2c(-c3ncc(Oc4nccc(C)n4)cc3F)c3c(N)ncnc3n2C)cn1 [Example 1492] |  |  |  | < 100 | ≤ 100 |
| C#Cc1ccc2c(n1)OCCn1c-2c(-c2ccc(Oc3nccc(C)n3)c(F)c2)c2c(N)ncnc21 [Example 1495] |  |  |  | < 100 | ≤ 100 |
